Our source for the EC50 values is patent publication US11021446B2 (NOVARTIS AG, priority 2013, dated 2021).

The structures appear in SMILES notation.

This experiment has as its target T1, human Farnesoid X Receptor (FXR) ligand binding domain (GST-FXR LBD) (Homo sapiens, UniProt Q96RI1).
T1 construct: purchased Invitrogen
T1 sequence (Q96RI1 193-472 isoform Q96RI1-2): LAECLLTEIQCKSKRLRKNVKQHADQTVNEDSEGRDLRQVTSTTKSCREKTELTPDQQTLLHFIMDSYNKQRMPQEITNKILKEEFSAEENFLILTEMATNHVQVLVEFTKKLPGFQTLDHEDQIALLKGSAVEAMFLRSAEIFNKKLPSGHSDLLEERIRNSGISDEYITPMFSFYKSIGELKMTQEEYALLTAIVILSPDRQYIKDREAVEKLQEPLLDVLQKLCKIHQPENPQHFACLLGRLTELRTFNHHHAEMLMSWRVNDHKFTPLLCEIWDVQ
Description: Human GST-FXR LBD co-activator interaction assay (FXR HTRF assay). In kind it is biochemical. To be noted: GST-FXR LBD interaction with biotin-labeled SRC-1 peptide, FRET, response relative to GW4064, read-out: FXR coactivator interaction assay (HTRF). From the text: Human GST-FXR LBD Co-Activator Interaction Assay
The FXR HTRF assay is a biochemical assay measuring the interaction between FXR and a coactivator protein (SRC1). The ligand-induced interaction with a coactivator protein is a critical step in transcriptional activation by FXR. Thus, this is an assay designed to measure FXR agonist activity of the test compounds.
Recombinant human Farnesoid X Receptor (FXR) ligand binding domain (amino acids 193-472) fused to glutathione S-transferase (GST) purified protein (GST-FXR LBD) was purchased (Invitrogen). The ligand-dependent interaction between GST-FXR LBD and a peptide derived from Steroid Receptor Coactivator-1 (SRC-1) was monitored by Fluorescence Resonance Energy Transfer (FRET). […] Test compounds (in DMSO solution) and detection reagents (anti-GST-Cryptate labeled antibody and Streptavidin-XL665 conjugate; CisBio) were added in assay buffer containing 50 mM KF. Plates are incubated at room temperature in the dark for 2.5 hrs before reading on an Envision (PerkinElmer) at 665 nm and 590 nm. The HTRF assay results were calculated from the 665 nm/590 nm ratio (ratio=(A665 nm/A590 nm)×10^4) and expressed in Delta F %=(Ratiosample−Rationegative)/Rationegative×100.
A negative control (without Streptavidin-XL665) was run with each assay and represented the background fluorescence. A reference FXR agonist, (E)-3-(2-chloro-4-((3-(2,6-dichlorophenyl)-5-isopropylisoxazol-4-yl)methoxy)styryl)benzoic acid (Compound GW4064), was included in each experiment as positive control. The efficacy of each test compound was compared to that of GW4064. At each concentration, the relative activity of the test compound was expressed as Response %=(Rsample−RDMSO)/(Rpositive−RDMSO), where Rsample is the HTRF response (expressed in Delta F %) for the test compound, Rpositive is the maximal response for GW4064 at saturating concentrations, and RDMSO is the response for DMSO control. The EC50 values were calculated using GraphPad Prism (GraphPad Software) using non-linear regression curve fit (log(agonist) vs. response-variable slope (four parameters)).
A general note: In TR-FRET formats the signal depends on donor and acceptor labels being close together.
For `Cc1cccc(CN(CC(=O)Nc2cc(C(=O)O)ccc2F)C(=O)c2nn(C)c3c2COc2ccc(Cl)cc2-3)c1` [Compound 3, 3-(2-(8-chloro-1-methyl-N-(3-methylbenzyl)-1,4-dihydrochromeno[4,3-c]pyrazole-3-carboxamido)acetamido)-4-fluorobenzoic acid], the EC50 worked out at 0.51 nM. Regarding `Cc1cccc(CN(CC(=O)Nc2cc(C(=O)O)ccc2F)C(=O)c2nn(C)c3c2COc2ccccc2-3)c1` [Compound 4, 4-fluoro-3-(2-(1-methyl-N-(3-methylbenzyl)-1,4-dihydrochromeno[4,3-c]pyrazole-3-carboxamido)acetamido)benzoic acid], the EC50 is 0.75 nM. Turning to `Cc1ccc2c(c1)-c1c(c(C(=O)N(CC(=O)Nc3cccc(C(=O)O)c3)Cc3ccccc3F)nn1C)CO2` [Compound 5, 3-(2-(N-(2-fluorobenzyl)-1,8-dimethyl-1,4-dihydrochromeno[4,3-c]pyrazole-3-carboxamido)acetamido)benzoic acid], the EC50 is 0.8 nM.

As for `Cc1cccc2c1OCc1c(C(=O)N(CC(=O)Nc3cccc(C(=O)O)c3)Cc3ccccc3F)nn(C)c1-2` [Compound 6, 3-(2-(N-(2-fluorobenzyl)-1,6-dimethyl-1,4-dihydrochromeno[4,3-c]pyrazole-3-carboxamido)acetamido)benzoic acid], the EC50 was found to be 2.4 nM.

For the molecule `Cn1nc(C(=O)N(CC(=O)Nc2cccc(C(=O)O)c2)Cc2ccccc2F)c2c1-c1cc(F)ccc1OC2` [Compound 7, 3-(2-(8-fluoro-N-(2-fluorobenzyl)-1-methyl-1,4-dihydrochromeno[4,3-c]pyrazole-3-carboxamido)acetamido)benzoic acid], the EC50 was 1 nM.

`Cn1nc(C(=O)N(CC(=O)Nc2cccc(C(=O)O)c2)Cc2ccccc2F)c2c1-c1ccc(F)cc1OC2` [Compound 8, 3-(2-(7-fluoro-N-(2-fluorobenzyl)-1-methyl-1,4-dihydrochromeno[4,3-c]pyrazole-3-carboxamido)acetamido)benzoic acid]: the EC50 was found to be 3.3 nM. For `Cn1nc(C(=O)N(CC(=O)Nc2cccc(C(=O)O)c2)Cc2ccccc2F)c2c1-c1ccc(Cl)cc1OC2` [Compound 9, 3-(2-(7-chloro-N-(2-fluorobenzyl)-1-methyl-1,4-dihydrochromeno[4,3-c]pyrazole-3-carboxamido)acetamido)benzoic acid], the EC50 stood at 3.6 nM. For the molecule `Cn1nc(C(=O)N(CC(=O)Nc2cccc(C(=O)O)c2)Cc2ccccc2F)c2c1-c1cc(F)c(F)cc1OC2` [Compound 10], the EC50 worked out at 1.7 nM. As to `Cn1nc(C(=O)N(CC(=O)Nc2cccc(C(=O)O)c2)Cc2ccccc2F)c2c1-c1cc(F)cc(F)c1OC2` [Compound 11, 3-(2-(6,8-difluoro-N-(2-fluorobenzyl)-1-methyl-1,4-dihydrochromeno[4,3-c]pyrazole-3-carboxamido)acetamido)benzoic acid], the EC50 turned out to be 3.3 nM.

Take `Cn1nc(C(=O)N(CC(=O)Nc2cccc(C(=O)O)c2)Cc2ccccc2F)c2c1-c1ccccc1OC2` [Compound 12, 3-(2-(N-(2-fluorobenzyl)-1-methyl-1,4-dihydrochromeno[4,3-c]pyrazole-3-carboxamido)acetamido)benzoic acid]: the EC50 was determined as 5.4 nM. The result for `Cc1cc2c(cc1Cl)-c1c(c(C(=O)N(CC(=O)Nc3cccc(C(=O)O)c3)Cc3ccccc3F)nn1C)CO2` [Compound 13, 3-(2-(8-chloro-N-(2-fluorobenzyl)-1,7-dimethyl-1,4-dihydrochromeno[4,3-c]pyrazole-3-carboxamido)acetamido)benzoic acid] reads 0.8 nM. For the molecule `Cc1cc(Cl)cc2c1OCc1c(C(=O)N(CC(=O)Nc3cccc(C(=O)O)c3)Cc3ccccc3F)nn(C)c1-2` [Compound 14, 3-(2-(8-chloro-N-(2-fluorobenzyl)-1,6-dimethyl-1,4-dihydrochromeno[4,3-c]pyrazole-3-carboxamido)acetamido)benzoic acid], the EC50 amounted to 0.84 nM.
